SMILES strings stand for the structures. “And” between values parts separate entries of the source, which are not always exact repeats. Identical values can stand only once.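 Method: 48-hour compound exposure of cells in 96-well plates, five concentrations, linear interpolation of endpoints. Abbreviation: GI50, concentration required for 50% inhibition of growth. TGI denotes the concentration required for complete inhibition of growth.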 Some results are limits rather than exact numbers.

What all share (test): NCI-60 cell line screen, 48 h
The subject of experiment [1] is CAKI-1 renal.
The subject of experiment [2] is OVCAR-8 ovarian.
Experiment [3] deals with IGROV1 ovarian.
Experiment [4] has as its system HOP-62 NSCLC.
Experiment [5] deals with SNB-75 CNS.
The subject of experiment [6] is HCT-15 colon.
The subject of experiment [7] is SK-MEL-2 melanoma.
Experiment [8] concerns U251 CNS.
The test system of experiment [9] is HOP-92 NSCLC.
Experiment [10] concerns UO-31 renal.
Experiment [11] has as its system SK-OV-3 ovarian.
Experiment [12] concerns NCI/ADR-RES ovarian.
Experiment [13] relates to PC-3 prostate.
Experiment [14] relates to K-562 leukemia.
Experiment [15] relates to SK-MEL-5 melanoma.
Experiment [16] has as its system UACC-62 melanoma.
Experiment [17] relates to SR leukemia.

As for `O=C(/C=C/c1ccc(O)c(O)c1)O[C@H]1CCCC[C@@H]1OC(=O)/C=C/c1ccc(O)c(O)c1`, the TGI in experiment [1] was greater than 100 µM; in experiment [2] it was 57.1 µM; in experiment [3], 55 µM; in experiment [4], 41.1 µM; in experiment [5], greater than 100 µM; in [6] it was 35.7 µM. In addition, the TGI was 84.3 µM in experiment [7]; greater than 100 µM in experiment [8]; 52.1 µM in experiment [9]; 27.8 µM in experiment [10]; 41.3 µM in experiment [11]; 91.2 µM in experiment [12]. For the same molecule, the TGI in [13] is greater than 100 µM; in experiment [14], greater than 100 µM; in [15], 21.4 µM; in experiment [16], 27.4 µM; in experiment [17] it was greater than 100 µM.

Take `O=C(O)c1ccc(C2=Nc3cccc4cccc(c34)N2)cc1`: the TGI in experiment [1], in experiment [2], in experiment [3], in [4], in [5] and in experiment [6] was greater than 100 µM throughout. The TGI in [7], in experiment [8], in experiment [9], in experiment [10], in experiment [11] and in experiment [12] was greater than 100 µM in each case. Moreover, the TGI in experiment [13], in experiment [14], in experiment [15], in [16] and in experiment [17] was greater than 100 µM in each case.

As to `N#CC(C#N)[C@@H]1CCC=C(Sc2ccccc2)[C@H]1Sc1ccccc1`, the TGI was found to be 8.29 µM in experiment [1]; 9.37 µM in experiment [2]; 13.6 µM in [3]; 15.6 µM in experiment [4]; 17.9 µM in experiment [5]; 5.66 µM in experiment [6]. Also, the TGI in experiment [7] came to 12.2 µM; in [8], 23.6 µM; in [9] it was 13.7 µM; in [10], 17.6 µM; in [11] it was 16.3 µM; in experiment [12], 8.37 µM. Moreover, the TGI in [13] is 17.4 µM; in experiment [14] it was greater than 100 µM; in experiment [15] it was 18.4 µM; in experiment [16], 13.9 µM; in experiment [17], greater than 27.1 µM.

For the molecule `Oc1cc(F)cc2cccnc12`, the TGI in experiment [1] is greater than 100 µM; in [2] it was greater than 100 µM; in experiment [3], 3.99 µM; in experiment [4] it was greater than 100 µM; in experiment [5] it was greater than 100 µM; in experiment [6], greater than 100 µM. Moreover, the TGI in experiment [7] is greater than 100 µM; in experiment [8] it was greater than 100 µM; in experiment [9], 3.1 µM; in experiment [10], greater than 100 µM; in [11], greater than 100 µM; in experiment [12], 6.74 µM. The TGI in [13] was greater than 100 µM; in experiment [14] it was 1.15 µM; in experiment [15], 13.4 µM; in [16] it was greater than 42.6 µM; in experiment [17] it was 2.86 µM.

As for `COC(=O)C(Cc1ccccc1)NP(=O)(O)OCC1OC(n2ccc(N)nc2=O)C(O)C1O` (stereo not given), the TGI in [1], in experiment [2], in [3], in experiment [4], in [5] and in experiment [6] was greater than 100 µM each time. Moreover, the TGI in experiment [7], in [8], in [9], in experiment [10], in [11] and in experiment [12] was greater than 100 µM throughout. The TGI in experiment [13], in [14], in experiment [15], in experiment [16] and in experiment [17] was greater than 100 µM in each case.

`O=C1C2CCCCC2C(=O)N1n1c(Cc2ccccc2)n[nH]c1=O` (stereo not given): the TGI in experiment [1], in [2], in experiment [3], in experiment [4], in experiment [5] and in [6] was greater than 100 µM in each case. The TGI in [7], in [8], in [9], in [10], in experiment [11] and in experiment [12] was greater than 100 µM throughout. Further, the TGI in experiment [13], in experiment [14], in [15], in experiment [16] and in experiment [17] was greater than 100 µM in each case.

In the case of `COc1ccc(/C=C2/C(=O)N(/C=C3\C(=O)Oc4ccccc4C3=O)C(=NC(C)=O)N2C)cc1OC`, the TGI in experiment [1], in experiment [2], in experiment [3], in experiment [4], in [5] and in experiment [6] was greater than 100 µM in each case. The TGI in experiment [7], in [8], in [9], in experiment [10], in [11] and in experiment [12] was greater than 100 µM throughout. Further, the TGI in [13], in experiment [14], in [15], in experiment [16] and in experiment [17] was greater than 100 µM throughout. The GI50 in experiment [9] and in experiment [10] was greater than 100 µM each time.

As to `Cc1[nH]c2[nH]c(=S)nc(NC(N)=S)c2c1Cc1ccccc1`, the TGI in experiment [1] is greater than 100 µM; in [2], greater than 100 µM; in experiment [3] it was greater than 100 µM; in [4], greater than 100 µM; in [5] it was 76.4 µM; in experiment [6], greater than 100 µM. Moreover, the TGI in [7], in experiment [8], in experiment [9], in [10], in [11] and in experiment [12] was greater than 100 µM in each case. Besides, the TGI was greater than 100 µM in experiment [13]; greater than 100 µM in experiment [14]; 26.1 µM in [15]; greater than 100 µM in [16]; 36.2 µM in experiment [17].

For the molecule `Clc1ccc(C2=Cc3nc2c(-c2ccccc2)c2ccc([nH]2)c(-c2ccccc2)c2nc(c(-c4ccccc4)c4ccc([nH]4)c3-c3ccccc3)C=C2)cc1`, the TGI in [1] is 49.9 µM; in experiment [2] it was greater than 62.5 µM; in experiment [3], greater than 62.5 µM; in experiment [4], greater than 62.5 µM; in [5], greater than 62.5 µM; in experiment [6], greater than 62.5 µM. Further, the TGI in [7], in experiment [8], in experiment [9], in experiment [10], in experiment [11] and in experiment [12] was greater than 62.5 µM each time. The TGI in experiment [13], in experiment [14], in [15], in experiment [16] and in experiment [17] was greater than 62.5 µM in each case.

For the molecule `C=CCc1cccc(/C(O)=C/C(=O)/C=C/c2ccccc2Cl)c1O`, the TGI in experiment [1] was greater than 100 µM; in experiment [2] it was 25.5 µM; in experiment [3] it was 29.6 µM; in experiment [4], 61.2 µM; in experiment [5], greater than 100 µM; in experiment [6], greater than 100 µM. Further, the TGI was 26.2 µM in experiment [7]; greater than 63.1 µM in experiment [8]; 55.2 µM in experiment [9]; 32.7 µM in experiment [10]; 97.1 µM in experiment [11]; 45.9 µM in [12]. Moreover, the TGI in [13] is 85 µM; in experiment [14], greater than 25.2 µM; in experiment [15] it was 31.7 µM; in experiment [16], 43.3 µM; in experiment [17] it was 16 µM.

For `Oc1c(O)c(Cc2ccccc2)c(Cc2ccccc2)c(Cc2ccccc2)c1Cc1ccccc1`, the TGI in [1], in experiment [2], in [3], in [4], in experiment [5] and in [6] was greater than 10 µM each time. Moreover, the TGI in experiment [7], in experiment [8], in [9], in experiment [10], in [11] and in experiment [12] was greater than 10 µM throughout. Besides, the TGI in [13], in experiment [14], in experiment [15], in experiment [16] and in experiment [17] was greater than 10 µM each time.

On to `NC(=S)NN=C1Cc2ccccc2C1`, for which the TGI in experiment [1], in experiment [2], in experiment [3], in experiment [4], in experiment [5] and in experiment [6] was greater than 100 µM each time. The TGI in experiment [7], in experiment [8], in [9], in [10], in experiment [11] and in [12] was greater than 100 µM throughout. Also, the TGI in experiment [13], in experiment [14], in [15], in experiment [16] and in experiment [17] was greater than 100 µM each time.

For `CC(=O)OC1OC(C2c3cccc(O)c3C(=O)c3c(O)cc(CO)cc32)C(O)C(O)C1O` (stereo not given), the TGI is 7.51 µM and 7.82 µM in [1]; 69.3 µM and > 100 µM in [2]; 20.8 µM and 21.1 µM in experiment [3]; 11.6 µM and 18.5 µM in experiment [4]; 23.5 µM and 16.3 µM in experiment [5]; 9.33 µM and 11.2 µM in [6]. Also, the TGI in experiment [7] is 6.11 µM and 5.71 µM; in [8], 22.6 µM; in experiment [9], 9.38 µM; in experiment [10] it was 22.5 µM and 21.3 µM; in experiment [11], 18.3 µM and 90.8 µM; in [12], 44.7 µM and 28.1 µM. Moreover, the TGI is 10.5 µM and 12.4 µM in experiment [13]; greater than 100 µM in experiment [14]; 4.26 µM and 4.09 µM in experiment [15]; 16.6 µM and 17.7 µM in [16]; > 100 µM and 33.1 µM in experiment [17]. Further, in experiment [4], the GI50 is 2.38 µM and 5.03 µM.

Turning to `CCOC(=O)/C=C(\C(=O)OCC)n1cc(C)c(=O)n(Cc2cn(COCCOC(C)=O)nn2)c1=O`, the TGI is 7.05 µM in experiment [1]; 21.3 µM in experiment [2]; 31.1 µM in experiment [3]; 38.7 µM in experiment [4]; 36 µM in [5]; 55.4 µM in experiment [6]. The TGI in experiment [7] is 34.5 µM; in experiment [8], 37.5 µM; in [9], 3.91 µM; in [10] it was 26.9 µM; in [11], greater than 100 µM; in experiment [12], 67.4 µM. Besides, the TGI in experiment [13] was 38.6 µM; in experiment [14], greater than 100 µM; in experiment [15], 50.5 µM; in [16], 33.8 µM; in experiment [17], 57.7 µM.

`CCCCCCCCCCCCCCCCCCOC(COP(=O)(O)OCC1OC(n2cc(F)c(=O)[nH]c2=O)CC1O)COP(=O)(O)OCC1OC(n2ccc(N)nc2=O)C(O)C1O` (stereo not given): the TGI in experiment [1], in experiment [2], in [3], in experiment [4], in [5] and in experiment [6] was greater than 100 µM in each case. For the same molecule, the TGI was greater than 100 µM in experiment [7]; 50.7 µM in experiment [8]; greater than 94.8 µM in experiment [9]; greater than 100 µM in experiment [10]; greater than 100 µM in experiment [11]; greater than 100 µM in experiment [12]. For the same molecule, the TGI is 78.8 µM in experiment [13]; greater than 100 µM in [14]; greater than 100 µM in experiment [15]; greater than 100 µM in experiment [16]; greater than 100 µM in experiment [17].

As to `N#CCc1nc(-c2cc3ccc(O)cc3oc2=O)cs1`, the TGI in experiment [1], in [2], in experiment [3], in [4], in experiment [5] and in [6] was greater than 100 µM in each case. Besides, the TGI in [7] is 66 µM; in [8] it was greater than 100 µM; in experiment [9], greater than 100 µM; in [10] it was greater than 100 µM; in experiment [11], greater than 100 µM; in [12] it was greater than 100 µM. Moreover, the TGI is greater than 100 µM in experiment [13]; greater than 100 µM in experiment [14]; greater than 100 µM in [15]; 63.3 µM in [16]; greater than 100 µM in experiment [17].

(Values after PubChem BioAssay (NCI).)
